Values of other authors in US20150231092A1, “NOVEL EFFERVESCENT SACHET FORMULATIONS OF DAPOXETINE AND A PDE5 INHIBITOR” (Sanovell IIac Sanayi Ve Ticaret Anonim Sirketi, priority 2012, published 2015).

Key:
[1] = following oral administration
[2] = following oral administration; remark: listed apart in the source

Row | Compound | binding to plasma proteins [1] | onset of action [2] | onset of action takes (second sentence; apparently action time) [2] | solubility in water
1 | CN(C)[C@@H](CCOc1cccc2ccccc12)c1ccccc1 [dapoxetine] | almost completely binding to plasma proteins |  |  | 
2 | CN1CC(=O)N2[C@H](c3ccc4c(c3)OCO4)c3[nH]c4ccccc4c3C[C@@H]2C1=O [tadalafil, (6R-trans)-6-(1,3-benzodioxol-5-yl)-2,3,6,7,12,12a-hexahydro-2-methyl-pyrazino[1′,2′:1,6]pyrido[3,4-b]indole-1,4-dione] |  | 15 min | up to 36 hours | poorly soluble in water
